Here are results for 12 compounds from ChEMBL document CHEMBL4819073, “Synthesis and biological evaluation of phenothiazine derivative-containing hydroxamic acids as potent class II histone deacetylase inhibitors” (Eur J Med Chem, 2021).

Activity calls are given as the source filed them. No cut-off for these calls is given here.

In one data set the target is Histone deacetylase. In words: Inhibition of HDAC in human HeLa nuclear extracts using Boc-Lys (acetyl)-AMC as substrate preincubated for 5 mins followed by substrate addition and further incubated for 30 mins by fluorescence based assay. It is filed as subcellular, Nucleus.
A further data set addresses Histone deacetylase 4 (Homo sapiens, UniProt P56524). In words: Inhibition of N-terminal GST-tagged and C-terminal His-tagged human HDAC4 (627 to 1084 residues) expressed in baculovirus infected Sf9 cells using Boc Lys(TFA)-AMC as substrate preincubated for 5 mins followed by substrate addition and further incubated for 30 mins by fluorogenic assay.
Another data set deals with T1, Histone deacetylase 7 (Homo sapiens, UniProt Q8WUI4).
T1 sequence (Q8WUI4 whole entry): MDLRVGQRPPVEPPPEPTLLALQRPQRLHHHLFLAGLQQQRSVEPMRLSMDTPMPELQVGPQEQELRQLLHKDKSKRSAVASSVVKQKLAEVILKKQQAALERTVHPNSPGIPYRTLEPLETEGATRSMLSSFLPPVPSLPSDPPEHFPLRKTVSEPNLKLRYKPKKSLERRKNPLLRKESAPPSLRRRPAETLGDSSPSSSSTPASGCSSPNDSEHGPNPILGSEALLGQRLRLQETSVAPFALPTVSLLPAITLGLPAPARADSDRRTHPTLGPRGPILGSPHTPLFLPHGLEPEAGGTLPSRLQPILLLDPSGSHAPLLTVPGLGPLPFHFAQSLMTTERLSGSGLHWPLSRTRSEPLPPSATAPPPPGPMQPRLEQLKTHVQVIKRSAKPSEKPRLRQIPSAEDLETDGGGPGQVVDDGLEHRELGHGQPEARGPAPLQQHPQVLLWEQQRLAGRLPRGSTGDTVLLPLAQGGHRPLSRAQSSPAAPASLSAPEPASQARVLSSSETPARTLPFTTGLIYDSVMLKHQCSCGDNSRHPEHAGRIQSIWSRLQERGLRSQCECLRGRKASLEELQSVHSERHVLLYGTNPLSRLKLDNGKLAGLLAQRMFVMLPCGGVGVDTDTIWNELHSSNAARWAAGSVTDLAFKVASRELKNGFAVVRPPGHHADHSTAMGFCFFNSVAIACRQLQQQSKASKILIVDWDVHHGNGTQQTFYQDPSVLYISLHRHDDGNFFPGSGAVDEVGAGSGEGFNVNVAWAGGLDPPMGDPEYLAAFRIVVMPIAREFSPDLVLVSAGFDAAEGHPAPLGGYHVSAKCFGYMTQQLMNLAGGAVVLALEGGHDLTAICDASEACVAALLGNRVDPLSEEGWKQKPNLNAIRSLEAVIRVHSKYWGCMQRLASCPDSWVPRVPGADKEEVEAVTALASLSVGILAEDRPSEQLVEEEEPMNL
In words: Inhibition of N-terminal GST-tagged human HDAC7 (518 to end residues) expressed in baculovirus-infected Sf9 cells using Boc Lys(TFA)-AMC as substrate preincubated for 5 mins followed by substrate addition and further incubated for 30 mins by fluorogenic assay.

The target in another data set is Histone deacetylase 9 (Homo sapiens, UniProt Q9UKV0). In words: Inhibition of C-terminal His-tagged human HDAC9 (604 to 1066 residues) expressed in baculovirus-infected Sf9 cells using Boc Lys(TFA)-AMC as substrate preincubated for 5 mins followed by substrate addition and further incubated for 30 mins by fluorogenic assay.
Data set [1] concerns the target T2, Protein deacetylase HDAC6 (Homo sapiens, UniProt Q9UBN7).
T2 sequence (Q9UBN7 whole entry): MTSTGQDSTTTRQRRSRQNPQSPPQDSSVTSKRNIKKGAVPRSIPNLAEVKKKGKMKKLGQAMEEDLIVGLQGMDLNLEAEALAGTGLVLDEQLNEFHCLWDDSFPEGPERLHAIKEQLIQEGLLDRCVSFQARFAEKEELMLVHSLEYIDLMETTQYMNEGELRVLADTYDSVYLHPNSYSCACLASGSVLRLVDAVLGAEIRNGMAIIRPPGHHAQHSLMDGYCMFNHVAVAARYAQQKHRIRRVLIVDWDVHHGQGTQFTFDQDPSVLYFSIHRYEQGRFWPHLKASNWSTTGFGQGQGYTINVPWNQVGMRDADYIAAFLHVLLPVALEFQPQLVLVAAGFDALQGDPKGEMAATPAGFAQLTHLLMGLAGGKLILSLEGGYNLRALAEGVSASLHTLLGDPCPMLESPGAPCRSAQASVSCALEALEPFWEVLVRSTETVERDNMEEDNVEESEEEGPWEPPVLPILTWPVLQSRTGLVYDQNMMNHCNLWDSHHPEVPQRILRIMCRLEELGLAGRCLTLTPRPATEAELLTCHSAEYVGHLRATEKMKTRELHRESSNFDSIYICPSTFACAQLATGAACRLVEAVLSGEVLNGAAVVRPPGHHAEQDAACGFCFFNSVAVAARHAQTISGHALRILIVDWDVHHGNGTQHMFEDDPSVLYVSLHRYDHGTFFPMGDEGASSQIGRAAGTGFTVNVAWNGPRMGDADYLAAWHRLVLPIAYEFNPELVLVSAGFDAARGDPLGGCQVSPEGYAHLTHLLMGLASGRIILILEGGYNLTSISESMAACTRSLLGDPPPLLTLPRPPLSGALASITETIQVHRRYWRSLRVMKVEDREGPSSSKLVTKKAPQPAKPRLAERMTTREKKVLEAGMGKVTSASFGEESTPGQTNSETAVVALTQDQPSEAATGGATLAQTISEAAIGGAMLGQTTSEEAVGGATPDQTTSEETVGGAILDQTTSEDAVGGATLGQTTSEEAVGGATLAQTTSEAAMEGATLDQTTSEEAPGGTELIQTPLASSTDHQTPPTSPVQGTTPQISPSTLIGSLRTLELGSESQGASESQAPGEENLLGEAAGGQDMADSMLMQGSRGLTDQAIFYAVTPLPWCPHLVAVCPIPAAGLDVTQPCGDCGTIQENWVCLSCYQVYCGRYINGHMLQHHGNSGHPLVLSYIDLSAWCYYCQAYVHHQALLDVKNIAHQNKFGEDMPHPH
As to the kind of experiment: Inhibition of N-terminal GST-tagged full length human HDAC6 expressed in baculovirus-infected Sf9 cells using Boc-Lys (acetyl)-AMC as substrate preincubated for 5 mins followed by substrate addition and further incubated for 30 mins by fluorescence based assay.

The target of data set [2] is T3, Protein deacetylase HDAC6 (Mus musculus) (UniProt Q9Z2V5).
T3 sequence (whole entry): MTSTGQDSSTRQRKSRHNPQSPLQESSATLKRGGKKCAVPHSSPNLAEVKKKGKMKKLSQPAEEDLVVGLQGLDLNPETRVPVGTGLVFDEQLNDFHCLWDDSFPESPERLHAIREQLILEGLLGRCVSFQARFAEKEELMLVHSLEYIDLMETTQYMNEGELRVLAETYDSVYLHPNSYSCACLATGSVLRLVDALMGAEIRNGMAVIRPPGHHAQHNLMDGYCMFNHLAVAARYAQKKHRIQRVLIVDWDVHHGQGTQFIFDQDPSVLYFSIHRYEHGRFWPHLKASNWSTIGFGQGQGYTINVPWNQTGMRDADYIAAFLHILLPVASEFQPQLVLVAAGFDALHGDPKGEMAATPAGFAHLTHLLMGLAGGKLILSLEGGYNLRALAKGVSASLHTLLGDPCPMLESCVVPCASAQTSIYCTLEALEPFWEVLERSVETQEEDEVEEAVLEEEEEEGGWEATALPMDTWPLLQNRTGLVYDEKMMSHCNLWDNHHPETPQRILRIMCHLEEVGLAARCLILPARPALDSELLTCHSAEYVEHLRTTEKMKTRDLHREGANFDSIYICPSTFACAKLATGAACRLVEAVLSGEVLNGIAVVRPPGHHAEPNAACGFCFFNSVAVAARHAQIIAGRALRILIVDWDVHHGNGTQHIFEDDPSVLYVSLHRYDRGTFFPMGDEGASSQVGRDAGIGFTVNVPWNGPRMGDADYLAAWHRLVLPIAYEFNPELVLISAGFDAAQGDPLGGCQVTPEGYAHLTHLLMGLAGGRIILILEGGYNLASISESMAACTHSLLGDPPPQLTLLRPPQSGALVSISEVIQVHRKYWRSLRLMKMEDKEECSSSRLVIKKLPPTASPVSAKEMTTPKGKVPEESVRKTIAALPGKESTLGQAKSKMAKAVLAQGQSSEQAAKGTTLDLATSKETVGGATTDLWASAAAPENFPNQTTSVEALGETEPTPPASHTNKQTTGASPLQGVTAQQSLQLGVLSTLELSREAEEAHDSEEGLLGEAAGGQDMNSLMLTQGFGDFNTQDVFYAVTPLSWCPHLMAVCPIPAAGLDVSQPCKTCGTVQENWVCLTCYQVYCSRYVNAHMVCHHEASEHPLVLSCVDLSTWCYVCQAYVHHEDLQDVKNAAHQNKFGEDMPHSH
As to the kind of experiment: Inhibition of HDAC6 in mouse Neuro2a cells assessed as increase in acetylated alpha-tubulin levels incubated for 24 hrs by Western blot analysis. It is filed as cell-based. Particulars: dose 0.039-20 µM.

In the next data set the test system is N2a. In words: Cytotoxicity against mouse Neuro2a cells assessed as reduction in cell viability at 20 uM incubated for 24 hrs by Cell Titer-Glo 2.0 Luminescent cell assay. It is filed as cell-based. A general note: ATP-based viability assays read luminescence as a measure of living cells.
Data set [3] has as its target Amyloid-beta precursor protein (Homo sapiens) (UniProt P05067). In words: Inhibition of amyloid beta (1 to 42) (unknown origin) aggregation upto 10 uM by ThT fluorescence assay. As to conditions: dose microM <=10.
In data set [4] the target is Acetylcholinesterase (Homo sapiens) (UniProt P22303). In words: Inhibition of AChE (unknown origin).
Data set [5] concerns the target Class 1 histone deacetylase (Mus musculus) (UniProt Q8VH37+O09106+P70288+O88895). As to the kind of experiment: Inhibition of class I HDAC in mouse Neuro2a cells assessed as increase in acetylated histone H3 level at 0.039 to 20 uM incubated for 24 hrs by Western blot analysis. As to conditions: dose 0.039-20 µM. It is filed as cell-based. (In general: Immunoblotting shows a protein as a band on a membrane.)

For data set [6], the system named is SH-SY5Y. In words: Neuroprotective activity against H2O2-induced cell death in human SH-SY5Y cells assessed as increase in cell viability incubated for 3 hrs by MTT assay. It is filed as functional, cell-based. As to conditions: dose 2.5-40 µM.
The subject of data set [7] is SH-SY5Y. As to the kind of experiment: Neuroprotective activity against H2O2-induced cell death in human SH-SY5Y cells assessed as cell viability at 40 uM incubated for 3 hrs by MTT assay. It is filed as functional. Particulars: read-out: Activity. In general terms: Tetrazolium dyes change colour on reduction, which living cells bring about.
The test system of data set [8] is SH-SY5Y. In words: Induction of neurite outgrowth in human SH-SY5Y cells at 2.5 uM incubated for 5 days by immunostaining analysis. It is filed as functional, cell-based. Particulars: time 5.0 day.
The subject of data set [9] is SH-SY5Y. As to the kind of experiment: Induction of neurite outgrowth in human SH-SY5Y cells incubated for 5 days by immunostaining analysis. It is filed as functional, cell-based. As to conditions: dose 1.25-5 µM, time 5.0 day.

As a reminder, the IC50 is the midpoint of a concentration-inhibition curve. Read a high IC50 as a need for much substance.

Histone deacetylase 4, sequence (P56524 whole entry, the tested form may be a part): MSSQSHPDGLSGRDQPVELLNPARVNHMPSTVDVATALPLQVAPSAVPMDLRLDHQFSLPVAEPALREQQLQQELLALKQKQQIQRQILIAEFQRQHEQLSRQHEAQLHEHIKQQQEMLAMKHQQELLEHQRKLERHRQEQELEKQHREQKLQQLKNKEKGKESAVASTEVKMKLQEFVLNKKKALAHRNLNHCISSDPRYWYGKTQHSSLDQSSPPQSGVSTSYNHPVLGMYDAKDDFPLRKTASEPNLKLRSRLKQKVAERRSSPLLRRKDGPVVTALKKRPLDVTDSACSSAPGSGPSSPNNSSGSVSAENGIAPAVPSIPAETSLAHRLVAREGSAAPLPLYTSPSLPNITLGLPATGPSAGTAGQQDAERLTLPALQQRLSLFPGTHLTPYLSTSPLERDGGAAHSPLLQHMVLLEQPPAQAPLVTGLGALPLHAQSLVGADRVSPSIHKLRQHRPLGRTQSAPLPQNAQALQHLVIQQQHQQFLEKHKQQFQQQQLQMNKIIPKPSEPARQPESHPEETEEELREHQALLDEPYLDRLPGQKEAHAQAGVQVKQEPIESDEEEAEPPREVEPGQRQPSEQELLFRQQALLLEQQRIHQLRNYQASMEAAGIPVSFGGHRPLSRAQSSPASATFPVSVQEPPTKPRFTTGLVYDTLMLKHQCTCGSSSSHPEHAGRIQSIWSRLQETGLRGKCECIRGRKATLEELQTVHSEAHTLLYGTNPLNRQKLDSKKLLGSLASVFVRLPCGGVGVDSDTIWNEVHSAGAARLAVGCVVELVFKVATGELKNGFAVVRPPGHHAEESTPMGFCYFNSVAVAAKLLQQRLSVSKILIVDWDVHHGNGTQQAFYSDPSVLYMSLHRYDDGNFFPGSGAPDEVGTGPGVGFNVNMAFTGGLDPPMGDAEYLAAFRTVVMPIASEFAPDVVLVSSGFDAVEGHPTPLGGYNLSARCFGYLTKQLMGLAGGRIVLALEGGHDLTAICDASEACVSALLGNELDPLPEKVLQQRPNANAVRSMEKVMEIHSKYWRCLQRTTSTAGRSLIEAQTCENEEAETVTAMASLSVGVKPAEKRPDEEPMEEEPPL
Histone deacetylase 9, sequence (Q9UKV0 whole entry, the tested form may be a part): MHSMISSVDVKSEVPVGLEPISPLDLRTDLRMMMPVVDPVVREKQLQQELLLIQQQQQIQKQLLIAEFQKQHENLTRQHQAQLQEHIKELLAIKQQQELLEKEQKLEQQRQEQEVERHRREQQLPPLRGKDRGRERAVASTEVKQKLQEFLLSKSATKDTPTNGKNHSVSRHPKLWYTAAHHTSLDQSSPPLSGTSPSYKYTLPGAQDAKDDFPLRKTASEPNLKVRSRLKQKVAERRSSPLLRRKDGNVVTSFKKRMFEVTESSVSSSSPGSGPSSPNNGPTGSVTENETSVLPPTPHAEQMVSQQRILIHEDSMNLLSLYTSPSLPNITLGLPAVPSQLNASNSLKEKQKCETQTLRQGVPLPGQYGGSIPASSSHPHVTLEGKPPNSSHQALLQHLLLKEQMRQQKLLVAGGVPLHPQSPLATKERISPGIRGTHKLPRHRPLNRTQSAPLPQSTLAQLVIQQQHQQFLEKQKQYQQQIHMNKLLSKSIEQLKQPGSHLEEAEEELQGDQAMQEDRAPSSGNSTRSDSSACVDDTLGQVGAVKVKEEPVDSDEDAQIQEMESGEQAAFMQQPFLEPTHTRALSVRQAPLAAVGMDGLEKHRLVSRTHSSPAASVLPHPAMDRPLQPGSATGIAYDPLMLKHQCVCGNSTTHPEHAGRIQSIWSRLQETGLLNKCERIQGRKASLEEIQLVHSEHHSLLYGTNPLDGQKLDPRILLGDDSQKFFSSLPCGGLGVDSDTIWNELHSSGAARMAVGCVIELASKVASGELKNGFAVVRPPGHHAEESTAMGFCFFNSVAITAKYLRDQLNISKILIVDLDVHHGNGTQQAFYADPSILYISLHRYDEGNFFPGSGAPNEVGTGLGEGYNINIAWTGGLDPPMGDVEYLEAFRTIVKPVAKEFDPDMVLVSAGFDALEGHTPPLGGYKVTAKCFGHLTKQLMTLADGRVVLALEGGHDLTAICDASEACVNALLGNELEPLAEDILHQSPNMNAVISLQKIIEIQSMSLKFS
Class 1 histone deacetylase (Mus musculus), sequence (O09106 whole entry, looked up): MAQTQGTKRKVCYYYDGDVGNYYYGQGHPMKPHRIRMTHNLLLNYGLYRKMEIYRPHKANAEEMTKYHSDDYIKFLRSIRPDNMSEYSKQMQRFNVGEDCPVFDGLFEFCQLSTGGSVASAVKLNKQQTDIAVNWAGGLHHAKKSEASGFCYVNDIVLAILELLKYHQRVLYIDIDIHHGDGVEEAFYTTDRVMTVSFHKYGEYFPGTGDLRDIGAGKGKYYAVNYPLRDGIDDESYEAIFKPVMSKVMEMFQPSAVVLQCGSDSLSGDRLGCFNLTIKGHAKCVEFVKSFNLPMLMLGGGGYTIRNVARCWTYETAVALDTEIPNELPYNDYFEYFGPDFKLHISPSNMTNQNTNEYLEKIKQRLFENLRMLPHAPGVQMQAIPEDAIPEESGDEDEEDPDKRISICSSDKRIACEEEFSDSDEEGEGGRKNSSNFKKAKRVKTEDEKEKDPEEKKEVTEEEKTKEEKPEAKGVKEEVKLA
Class 1 histone deacetylase (Mus musculus), sequence (O88895 whole entry, looked up): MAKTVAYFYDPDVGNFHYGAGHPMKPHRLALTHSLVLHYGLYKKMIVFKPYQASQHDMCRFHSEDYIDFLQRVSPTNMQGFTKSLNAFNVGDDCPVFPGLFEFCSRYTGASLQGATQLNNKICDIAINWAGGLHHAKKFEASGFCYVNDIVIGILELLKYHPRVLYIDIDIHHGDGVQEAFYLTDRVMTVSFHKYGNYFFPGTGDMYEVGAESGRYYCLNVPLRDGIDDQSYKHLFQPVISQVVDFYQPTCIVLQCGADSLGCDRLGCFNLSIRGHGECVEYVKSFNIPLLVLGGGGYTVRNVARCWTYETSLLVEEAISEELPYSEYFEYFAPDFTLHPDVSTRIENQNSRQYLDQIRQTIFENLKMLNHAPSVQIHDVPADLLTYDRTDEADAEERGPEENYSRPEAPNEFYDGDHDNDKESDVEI
Class 1 histone deacetylase (Mus musculus), sequence (P70288 whole entry, looked up): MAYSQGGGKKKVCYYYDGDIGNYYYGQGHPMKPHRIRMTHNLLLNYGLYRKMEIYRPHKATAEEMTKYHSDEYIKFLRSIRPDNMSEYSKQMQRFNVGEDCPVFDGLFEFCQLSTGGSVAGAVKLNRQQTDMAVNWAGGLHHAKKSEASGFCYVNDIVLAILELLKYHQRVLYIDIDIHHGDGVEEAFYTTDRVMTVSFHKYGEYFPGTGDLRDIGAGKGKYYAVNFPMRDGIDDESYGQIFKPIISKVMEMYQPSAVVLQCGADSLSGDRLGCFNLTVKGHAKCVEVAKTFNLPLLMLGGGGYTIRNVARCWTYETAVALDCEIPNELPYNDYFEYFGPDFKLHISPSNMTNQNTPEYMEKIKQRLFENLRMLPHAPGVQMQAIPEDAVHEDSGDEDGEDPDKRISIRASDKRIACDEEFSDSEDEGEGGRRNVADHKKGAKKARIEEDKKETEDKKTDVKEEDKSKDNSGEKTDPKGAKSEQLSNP
Class 1 histone deacetylase (Mus musculus), sequence (Q8VH37 whole entry, looked up): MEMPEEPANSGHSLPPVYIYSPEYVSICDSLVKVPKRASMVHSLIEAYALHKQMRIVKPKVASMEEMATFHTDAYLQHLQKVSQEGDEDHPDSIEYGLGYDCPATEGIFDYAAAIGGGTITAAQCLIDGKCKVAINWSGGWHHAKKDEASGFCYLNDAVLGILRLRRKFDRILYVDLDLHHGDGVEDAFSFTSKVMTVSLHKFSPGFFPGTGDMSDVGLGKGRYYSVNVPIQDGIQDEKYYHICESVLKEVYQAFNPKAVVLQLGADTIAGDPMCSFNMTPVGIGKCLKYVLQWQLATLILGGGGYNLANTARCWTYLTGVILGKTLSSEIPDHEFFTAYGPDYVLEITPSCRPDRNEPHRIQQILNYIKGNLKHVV
Acetylcholinesterase (Homo sapiens), sequence (P22303 whole entry): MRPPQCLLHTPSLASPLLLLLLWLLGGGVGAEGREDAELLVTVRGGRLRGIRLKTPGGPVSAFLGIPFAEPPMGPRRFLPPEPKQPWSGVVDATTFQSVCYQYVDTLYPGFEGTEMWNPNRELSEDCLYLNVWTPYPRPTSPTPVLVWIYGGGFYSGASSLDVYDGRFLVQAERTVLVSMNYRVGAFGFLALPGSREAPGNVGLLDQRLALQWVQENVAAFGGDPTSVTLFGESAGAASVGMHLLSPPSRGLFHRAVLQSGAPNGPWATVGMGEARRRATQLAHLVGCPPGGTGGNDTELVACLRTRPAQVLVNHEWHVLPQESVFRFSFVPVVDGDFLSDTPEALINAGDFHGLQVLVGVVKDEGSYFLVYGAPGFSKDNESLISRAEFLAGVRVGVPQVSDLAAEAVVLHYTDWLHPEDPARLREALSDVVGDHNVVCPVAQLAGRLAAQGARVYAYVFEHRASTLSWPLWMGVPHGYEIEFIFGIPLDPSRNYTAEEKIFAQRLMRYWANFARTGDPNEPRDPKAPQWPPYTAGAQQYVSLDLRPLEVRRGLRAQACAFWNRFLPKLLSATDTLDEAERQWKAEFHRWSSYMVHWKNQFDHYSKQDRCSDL

Take `NC(=O)c1ccc2c(c1)N(Cc1ccc(/C=C/C(=O)NO)cc1)c1ccccc1S2`: the IC50 against Histone deacetylase was 0.02 µM; at Histone deacetylase 4, 3.26 µM; against Histone deacetylase 7, 5.74 µM; on Histone deacetylase 9 it was 8.27 µM; in [1], 0.037 µM.
The matching figures for `NC(=O)c1ccc2c(c1)N(Cc1ccc(C(=O)NO)cc1)c1ccccc1[S+]2[O-]` (configuration not stated): 1.69 µM, 12.9 µM, 9.38 µM, 4.2 µM and 0.0143 µM.
As for `O=C(NO)c1ccc(CN2c3ccccc3Sc3ccccc32)cc1`, the inhibition entry in data set [2] was “Dose-Dependent Effect”. Also, the Activity result in the data set with N2a was “Non-Toxic”.
Regarding `O=C(NO)c1ccc(Nc2c3ccccc3nc3ccc(Br)cc23)cc1`, on Histone deacetylase, the half-inhibitory concentration (IC50) was found to be 0.16 µM.
Regarding `O=C(NO)c1ccc(CN2c3ccccc3Sc3ccc(Cl)cc32)cc1`, the IC50 is 0.29 µM against Histone deacetylase; 3.6 µM at Histone deacetylase 4; 1.36 µM at Histone deacetylase 7; 0.35 µM against Histone deacetylase 9; 0.0095 µM in [1].
In the case of `NC(=O)c1ccc2c(c1)N(Cc1ccc(C(=O)NO)cc1)c1ccccc1S2`, the inhibition result in data set [3] and in data set [4] was “inactive” in each case. For the same compound, the inhibition result in data set [5] was “Active”. Besides, the inhibition entry in [2] was “Dose-Dependent Effect”. For the same compound, the Activity result in the data set with N2a is “Non-Toxic”; in the data set on SH-SY5Y [6] it was “Dose-Dependent Effect”; in the data set with SH-SY5Y [9], “Dose-Dependent Effect”. Also, in the data set with SH-SY5Y [7], the viability at 40 µM is 70.8%. For the same compound, in the data set on SH-SY5Y [8], the outcome was Active.
As to `C/C(=N\O)c1ccc2c(c1)N(Cc1ccc(C(=O)NO)cc1)c1ccccc1S2`, the IC50 against Histone deacetylase stood at 0.33 µM; against Histone deacetylase 4, 3.85 µM; on Histone deacetylase 7, 1.09 µM; against Histone deacetylase 9, 4.34 µM; in data set [1], 0.0108 µM.
On to `COc1ccc2c(c1)N(Cc1ccc(C(=O)NO)cc1)c1ccccc1S2`, for which the half-inhibitory concentration (IC50) was 0.35 µM on Histone deacetylase; 4.76 µM against Histone deacetylase 4; 1.55 µM on Histone deacetylase 7; 29.7 µM against Histone deacetylase 9; 0.0189 µM in [1].
The matching figures for `CSc1ccc2c(c1)N(Cc1ccc(C(=O)NO)cc1)c1ccccc1[S+]2[O-]` (configuration not stated): 1.68 µM, greater than 40 µM, greater than 40 µM, 0.72 µM and 0.0359 µM.
For `CSc1ccc2c(c1)N(Cc1ccc(C(=O)NO)cc1)c1ccccc1S2`, in that order: 0.68 µM, 5.8 µM, 2.25 µM, 3.26 µM and 0.0094 µM.
The matching figures for `O=C(NO)c1ccc(CN2c3ccccc3[S+]([O-])c3ccccc32)cc1`: 2.76 µM, 6.62 µM, 5.15 µM, 27.6 µM and 0.0205 µM.
`O=C(NO)c1ccc(CN2c3ccccc3Sc3ccc(C(F)(F)F)cc32)cc1`: the IC50 at Histone deacetylase was 0.84 µM; at Histone deacetylase 4, 7.59 µM; against Histone deacetylase 7, 2.24 µM; against Histone deacetylase 9, 2.58 µM; in data set [1], 0.0142 µM.
